From the supplement of paper PMC10307832

Columns and labels:
Assay in all cases: relative viability (nuclei count vs DMSO), 5 days (fraction); higher = more cells survive
[1] = test system: ABC-1
In short: (§1)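 Lung cancer cell lines were seeded in 1536-well plates and dosed by pin tool the next day, with either a single drug or a fixed anchor-drug dose combined with five library-drug doses (not always all listed) spaced in √10 steps. Five days later, one step fixed the cells and stained their nuclei (final 0.05% Triton X-100, 1% formaldehyde, 1 ug/ml Hoechst), and nuclei were counted on 4× images. Relative viability is the nuclei count in treated wells divided by the count in vehicle wells, and each value is the median of duplicate plates.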

[2] = test system: HCC-827
In short: as §1

[3] = test system: NCI-H1666
In short: as §1

[4] = test system: NCI-H1975
In short: as §1

[5] = test system: NCI-H322M
In short: as §1

[6] = test system: NCI-H1563
In short: as §1

[7] = test system: BEN
In short: as §1

[8] = test system: LXF-289
In short: as §1

[9] = test system: HOP-62
In short: as §1

[10] = test system: EPLC-272H
In short: as §1

[11] = test system: NCI-H2405
In short: as §1

[12] = test system: UMC-11
In short: as §1

[13] = test system: NCI-H727
In short: as §1

[14] = test system: NCI-H520
In short: as §1

[15] = test system: NCI-H3122
In short: as §1

[16] = test system: EKVX
In short: as §1

[17] = test system: NCI-H23
In short: as §1

[18] = test system: LU99A
In short: as §1

[19] = test system: NCI-H838
In short: as §1

[20] = test system: NCI-H2170
In short: as §1

[21] = test system: NCI-H358
In short: as §1

[22] = test system: SK-MES-1
In short: as §1

## COCC1(CO)C(=O)C2CCN1CC2 (centres undefined) [PRIMA-1MET] + CC(C)C[C@H](NC(=O)[C@H](Cc1ccccc1)NC(=O)c1cnccn1)B(O)O [Bortezomib] (partner 0.002 µM)
[1]; first compound 0.2 µM
  relative viability: 0.297
[1]; first compound 0.6325 µM
  relative viability: 0.278
[1]; first compound 2 µM
  relative viability: 0.256
[1]; first compound 6.325 µM
  relative viability: 0.287
[1]; first compound 20 µM
  relative viability: 0.276
[2]; first compound 0.2 µM
  relative viability: 1.13
[2]; first compound 0.6325 µM
  relative viability: 1.01
[2]; first compound 2 µM
  relative viability: 0.971
[2]; first compound 6.325 µM
  relative viability: 1.1
[2]; first compound 20 µM
  relative viability: 0.956
[3]; first compound 0.2 µM
  relative viability: 0.836
[3]; first compound 0.6325 µM
  relative viability: 0.777
[3]; first compound 2 µM
  relative viability: 0.816
[3]; first compound 6.325 µM
  relative viability: 0.983
[3]; first compound 20 µM
  relative viability: 0.305
[4]; first compound 0.2 µM
  relative viability: 0.457
[4]; first compound 0.6325 µM
  relative viability: 0.408
[4]; first compound 2 µM
  relative viability: 0.399
[4]; first compound 6.325 µM
  relative viability: 0.4
[4]; first compound 20 µM
  relative viability: 0.419
[5]; first compound 0.2 µM
  relative viability: 1.3
[5]; first compound 6.325 µM
  relative viability: 1.29
[5]; first compound 20 µM
  relative viability: 1.06
[6]; first compound 0.2 µM
  relative viability: 0.945
[6]; first compound 0.6325 µM
  relative viability: 0.822
[6]; first compound 2 µM
  relative viability: 0.635
[6]; first compound 6.325 µM
  relative viability: 1.15
[6]; first compound 20 µM
  relative viability: 0.386
[7]; first compound 0.2 µM
  relative viability: 0.853
[7]; first compound 0.6325 µM
  relative viability: 0.75
[7]; first compound 6.325 µM
  relative viability: 0.888
[7]; first compound 20 µM
  relative viability: 0.864
[8]; first compound 0.2 µM
  relative viability: 0.999
[8]; first compound 0.6325 µM
  relative viability: 0.976
[8]; first compound 2 µM
  relative viability: 1.12
[8]; first compound 6.325 µM
  relative viability: 1
[8]; first compound 20 µM
  relative viability: 0.872
[9]; first compound 0.2 µM
  relative viability: 1.02
[9]; first compound 0.6325 µM
  relative viability: 0.648
[9]; first compound 2 µM
  relative viability: 0.965
[9]; first compound 6.325 µM
  relative viability: 0.736
[9]; first compound 20 µM
  relative viability: 0.443
[10]; first compound 0.2 µM
  relative viability: 1.03
[10]; first compound 0.6325 µM
  relative viability: 0.847
[10]; first compound 2 µM
  relative viability: 0.966
[10]; first compound 6.325 µM
  relative viability: 1.2
[10]; first compound 20 µM
  relative viability: 0.686
[11]; first compound 0.2 µM
  relative viability: 0.716
[11]; first compound 0.6325 µM
  relative viability: 0.786
[11]; first compound 6.325 µM
  relative viability: 0.92
[11]; first compound 20 µM
  relative viability: 0.952
[12]; first compound 0.2 µM
  relative viability: 0.778
[12]; first compound 0.6325 µM
  relative viability: 0.407
[12]; first compound 2 µM
  relative viability: 0.666
[12]; first compound 6.325 µM
  relative viability: 0.771
[12]; first compound 20 µM
  relative viability: 0.777
[13]; first compound 0.2 µM
  relative viability: 0.573
[13]; first compound 0.6325 µM
  relative viability: 0.829
[13]; first compound 2 µM
  relative viability: 0.618
[13]; first compound 6.325 µM
  relative viability: 0.573
[13]; first compound 20 µM
  relative viability: 0.0549
[14]; first compound 0.2 µM
  relative viability: 0.545
[14]; first compound 0.6325 µM
  relative viability: 0.503
[14]; first compound 6.325 µM
  relative viability: 0.613
[14]; first compound 20 µM
  relative viability: 0.113
[15]; first compound 0.2 µM
  relative viability: 0.865
[15]; first compound 0.6325 µM
  relative viability: 1.01
[15]; first compound 2 µM
  relative viability: 0.955
[15]; first compound 6.325 µM
  relative viability: 0.986
[15]; first compound 20 µM
  relative viability: 0.999
[16]; first compound 0.2 µM
  relative viability: 1.16
[16]; first compound 0.6325 µM
  relative viability: 0.851
[16]; first compound 2 µM
  relative viability: 0.943
[16]; first compound 6.325 µM
  relative viability: 1.06
[16]; first compound 20 µM
  relative viability: 0.845
[17]; first compound 0.2 µM
  relative viability: 0.966
[17]; first compound 0.6325 µM
  relative viability: 0.724
[17]; first compound 2 µM
  relative viability: 0.944
[17]; first compound 6.325 µM
  relative viability: 1.05
[17]; first compound 20 µM
  relative viability: 0.116
[18]; first compound 0.2 µM
  relative viability: 1.09
[18]; first compound 0.6325 µM
  relative viability: 0.957
[18]; first compound 2 µM
  relative viability: 1.15
[18]; first compound 6.325 µM
  relative viability: 0.892
[18]; first compound 20 µM
  relative viability: 0.103
[19]; first compound 0.2 µM
  relative viability: 0.9
[19]; first compound 0.6325 µM
  relative viability: 0.652
[19]; first compound 2 µM
  relative viability: 0.745
[19]; first compound 6.325 µM
  relative viability: 0.978
[19]; first compound 20 µM
  relative viability: 0.263

## COCC1(CO)C(=O)C2CCN1CC2 (centres undefined) [PRIMA-1MET] + Nc1nc2[nH]cc(CCc3ccc(C(=O)N[C@@H](CCC(=O)O)C(=O)O)cc3)c2c(=O)[nH]1 [Pemetrexed] (partner 0.2 µM)
[2]; first compound 0.2 µM
  relative viability: 0.221
[2]; first compound 0.6325 µM
  relative viability: 0.144
[2]; first compound 2 µM
  relative viability: 0.239
[2]; first compound 6.325 µM
  relative viability: 0.554
[2]; first compound 20 µM
  relative viability: 0.275
[3]; first compound 0.2 µM
  relative viability: 0.949
[3]; first compound 0.6325 µM
  relative viability: 0.824
[3]; first compound 2 µM
  relative viability: 0.742
[3]; first compound 6.325 µM
  relative viability: 0.793
[3]; first compound 20 µM
  relative viability: 0.814
[4]; first compound 0.2 µM
  relative viability: 0.31
[4]; first compound 0.6325 µM
  relative viability: 0.266
[4]; first compound 2 µM
  relative viability: 0.28
[4]; first compound 6.325 µM
  relative viability: 0.292
[4]; first compound 20 µM
  relative viability: 0.282
[5]; first compound 0.2 µM
  relative viability: 0.633
[5]; first compound 0.6325 µM
  relative viability: 0.562
[5]; first compound 6.325 µM
  relative viability: 0.624
[5]; first compound 20 µM
  relative viability: 0.0887
[20]; first compound 0.2 µM
  relative viability: 0.271
[20]; first compound 0.6325 µM
  relative viability: 0.25
[20]; first compound 2 µM
  relative viability: 0.274
[20]; first compound 6.325 µM
  relative viability: 0.258
[20]; first compound 20 µM
  relative viability: 0.268
[6]; first compound 0.2 µM
  relative viability: 0.882
[6]; first compound 0.6325 µM
  relative viability: 0.935
[6]; first compound 6.325 µM
  relative viability: 0.77
[6]; first compound 20 µM
  relative viability: 0.887
[7]; first compound 0.2 µM
  relative viability: 0.898
[7]; first compound 0.6325 µM
  relative viability: 0.421
[7]; first compound 6.325 µM
  relative viability: 0.801
[7]; first compound 20 µM
  relative viability: 0.834
[8]; first compound 0.2 µM
  relative viability: 0.967
[8]; first compound 0.6325 µM
  relative viability: 0.891
[8]; first compound 2 µM
  relative viability: 1.09
[8]; first compound 6.325 µM
  relative viability: 0.954
[8]; first compound 20 µM
  relative viability: 0.875
[9]; first compound 0.2 µM
  relative viability: 0.407
[9]; first compound 0.6325 µM
  relative viability: 0.377
[9]; first compound 2 µM
  relative viability: 0.36
[9]; first compound 6.325 µM
  relative viability: 0.377
[9]; first compound 20 µM
  relative viability: 0.122
[21]; first compound 0.2 µM
  relative viability: 0.175
[21]; first compound 0.6325 µM
  relative viability: 0.159
[21]; first compound 2 µM
  relative viability: 0.165
[21]; first compound 6.325 µM
  relative viability: 0.164
[21]; first compound 20 µM
  relative viability: 0.198
[10]; first compound 0.2 µM
  relative viability: 0.35
[10]; first compound 0.6325 µM
  relative viability: 0.403
[10]; first compound 2 µM
  relative viability: 0.314
[10]; first compound 6.325 µM
  relative viability: 0.317
[10]; first compound 20 µM
  relative viability: 0.138
[11]; first compound 0.2 µM
  relative viability: 1.01
[11]; first compound 0.6325 µM
  relative viability: 0.986
[11]; first compound 6.325 µM
  relative viability: 0.974
[11]; first compound 20 µM
  relative viability: 0.0844
[12]; first compound 0.2 µM
  relative viability: 0.866
[12]; first compound 0.6325 µM
  relative viability: 0.693
[12]; first compound 2 µM
  relative viability: 0.836
[12]; first compound 6.325 µM
  relative viability: 0.768
[12]; first compound 20 µM
  relative viability: 0.801
[14]; first compound 0.2 µM
  relative viability: 0.726
[14]; first compound 2 µM
  relative viability: 0.681
[14]; first compound 6.325 µM
  relative viability: 0.647
[14]; first compound 20 µM
  relative viability: 0.421
[15]; first compound 0.2 µM
  relative viability: 0.18
[15]; first compound 0.6325 µM
  relative viability: 0.199
[15]; first compound 2 µM
  relative viability: 0.206
[15]; first compound 6.325 µM
  relative viability: 0.192
[15]; first compound 20 µM
  relative viability: 0.206
[16]; first compound 0.2 µM
  relative viability: 0.448
[16]; first compound 2 µM
  relative viability: 0.385
[16]; first compound 6.325 µM
  relative viability: 0.447
[16]; first compound 20 µM
  relative viability: 0.385
[17]; first compound 0.2 µM
  relative viability: 0.425
[17]; first compound 0.6325 µM
  relative viability: 0.595
[17]; first compound 2 µM
  relative viability: 0.443
[17]; first compound 6.325 µM
  relative viability: 0.579
[17]; first compound 20 µM
  relative viability: 0.175
[22]; first compound 0.2 µM
  relative viability: 1.08
[22]; first compound 0.6325 µM
  relative viability: 0.896
[22]; first compound 2 µM
  relative viability: 0.901
[22]; first compound 6.325 µM
  relative viability: 0.92
[22]; first compound 20 µM
  relative viability: 0.929
[18]; first compound 0.2 µM
  relative viability: 0.191
[18]; first compound 0.6325 µM
  relative viability: 0.161
[18]; first compound 2 µM
  relative viability: 0.201
[18]; first compound 6.325 µM
  relative viability: 0.179
[18]; first compound 20 µM
  relative viability: 0.187
[19]; first compound 0.2 µM
  relative viability: 0.247
[19]; first compound 0.6325 µM
  relative viability: 0.249
[19]; first compound 2 µM
  relative viability: 0.261
[19]; first compound 6.325 µM
  relative viability: 0.264
[19]; first compound 20 µM
  relative viability: 0.174
